The test system of experiment [1] is Bacillus subtilis. As to the kind of experiment: MIC by serial dilution. The format is cell-based. The protocol: (§1) Antibiotic activity, which is assumed to be based on the inhibition of the RNA polymerase, was tested against several gram-positive and gram-negative bacteria and Saccharomyces cerevisiae, including a Rifampicin resistant Staphylococcus aureus clinical isolate.
(§2) The microorganisms tested were grown on 1% peptone, 0.1% meat extract, 0.1% yeast extract medium containing 1.5% agar at pH 7.0. MIC values were determined by serial dilution. Table 2: Antimicrobial activity of Etnangien methylester in comparison to Etnangien acid 1

Experiment [2] has as its system Corynebacterium glutamicum (DSM 20300). The experiment can be described thus: MIC by serial dilution. Particulars: DSM20300. It is filed as cell-based. The protocol:
as §1, §2

In experiment [3] the test system is E. coli. As to the kind of experiment: MIC by serial dilution. The format is cell-based. As to conditions: Escherichia coli. Here is the method: as §1, §2
Experiment [4] concerns Micrococcus luteus. The experiment can be described thus: MIC by serial dilution. The format is cell-based. The protocol:
as §1, §2

The subject of experiment [5] is Nocardia corallina. As to the kind of experiment: MIC by serial dilution. The format is cell-based. Particulars: Gordonia rubripertincta. Here is the method:
as §1, §2

In experiment [6] the test system is S. aureus, Rifampicin resistant. As to the kind of experiment: MIC by serial dilution. It is filed as cell-based. Particulars: Staphylococcus aureus. Here is the method: as §1, §2
Experiment [7] concerns Saccharomyces cerevisiae. The experiment can be described thus: MIC by serial dilution. The format is cell-based. The protocol: as §1, §2
Experiment [8] concerns Staphylococcus aureus. The experiment can be described thus: MIC by serial dilution. It is filed as cell-based. Here is the method: as §1, §2
The target of experiment [9] is T1, HIV I reverse transcriptase (HIVRT) (Human immunodeficiency virus type 1 group M subtype B, UniProt P04585).
T1 construct: HIV I reverse transcriptase (HIVRT)
The experiment can be described thus: Nucleic acid polymerase inhibition, in vitro assay. Particulars: result in words. The format is biochemical. The protocol:
(§3) Similar antiviral activity is found for the Etnangien esters according to the invention.
(§4) Measurement results showing the nucleic acid polymerase inhibition by Etnangien 1 are shown in Figure 2 for E. coli RNA polymerase (EcRNAP), E. coli DNA polymerase (EcDNAP), and HIV I reverse transcriptase (HIVRT), and in Figure 3 for Moloney murine leukemia virus reverse transcriptase (MuLVRT). In vitro assays were performed according to Richardson et al. (J. Biol. Chem. 222-232 (1964)) and Houts et al. (J. Virol. 517-522(1979)). Maximum inhibition for E. coli polymerases was found for concentrations of 50 to 60 µg/mL, although E. coli itself was rather resistant.

In experiment [10] the target is T2, Moloney murine leukemia virus reverse transcriptase (MuLVRT) (Moloney murine leukemia virus, UniProt P03355).
T2 construct: Moloney murine leukemia virus reverse transcriptase (MuLVRT)
As to the kind of experiment: Nucleic acid polymerase inhibition, in vitro assay. It is filed as biochemical. The protocol:
as §3, §4

In brackets after ≈: the same amount, converted by molar mass.

Regarding `COC(=O)CC/C(C)=C/C(O)C/C=C/C=C/C=C/C=C/C=C/C(C)=C/C(O)C(C)C1CC(O)CCCC(OC)C/C=C\C=C\CC(C)C(O)C(C)C(O)C(C)C(O)CC(=O)O1` (stereo not drawn) [Etnangien methylester], the MIC (in general, the lowest concentration that inhibits growth of the organism) was 20 µg/mL (≈ 23.4 µM) in experiment [1]; 0.24 µg/mL (≈ 0.281 µM) in experiment [2]; over 80 µg/mL in [3]; 0.39 µg/mL (≈ 0.456 µM) in [4]; 0.12 µg/mL (≈ 0.14 µM) in [5]; 3.1 µg/mL (≈ 3.63 µM) in experiment [6]. Further, the minimum inhibitory concentration (MIC) was over 40 µg/mL in experiment [7] and 2.5 µg/mL (≈ 2.92 µM) in experiment [8].
Take `COC1C/C=C\C=C\CC(C)C(O)C(C)C(O)C(C)C(O)CC(=O)OC(C(C)C(O)/C=C(C)/C=C/C=C/C=C/C=C/C=C/CC(O)/C=C(\C)CCC(=O)O)CC(O)CCC1` (stereo not drawn) [Etnangien]: the minimal inhibitory concentration (MIC) in experiment [3] was over 80 µg/mL.
As to Etnangien, the “inhibition of viral reverse transcriptase” value in [9] was “potent inhibitor”. The “concentration of maximum inhibition” value in experiment [10] (MuLVRT, Figure 3) is given as 5 µg/mL. For the same molecule, the “inhibition of reverse transcriptase” value in experiment [10] (at concentrations of 5 µg/mL) is reported as “inhibited completely”.

Values taken from patent EP2014655B1, “Etnangien derivatives and their use as antibiotics” (Helmholtz-Zentrum für Infektionsforschung, priority 2007, dated 2009).
